Values quoted from earlier work as cited in paper PMC6182381, “Population Pharmacokinetics and Exposure-Response Relationships of Naldemedine” (Pharmaceutical Research, 2018).

Design: method as in earlier work
Details: cited from earlier work

**Q.** Which results are given for `N=C(N)c1ccccc1` [Benzamidine]?
**A.** metabolite excreted in feces: ~20 % of the administered dose of naldemedine; metabolite excreted in urine: approximately 32 % of the administered dose of naldemedine
